In publication PMC2901217, “Flavonoids activate pregnane × receptor-mediated CYP3A4 gene expression by inhibiting cyclin-dependent kinases in HepG2 liver carcinoma cells” (BMC Biochemistry, 2010):
Values belong to the compound of their own block, whether it stands above or below them.

Columns and labels:
[1] = test system: PXR-mediated CYP3A4 promoter activity in HepG2 cells stably transfected with PXR and CYP3A4-luc; assay: PXR transactivation assay (CYP3A4-luc luciferase reporter); settings: 24 h; for PXR activation as % of the activity from 2 μM of rifampicin: compound below 10 μM; for Activation of PXR-mediated CYP3A4 promoter (result in words): screen hit in HepG2 PXR/CYP3A4-luc cells
Procedure: HepG2 cells (2 × 10^4/well) stably transfected with PXR and CYP3A4-luc were seeded in 384-well plates and treated with indicated compounds for 24 h before the luciferase assay. […] Compounds were tested in quadruplicate. The bars denote the standard deviation.
Compounds were added to 384-well plates seeded with cells in a phenol red-free medium containing 5% charcoal/dextran-treated FBS and incubated for 24 h at 37°C before conducting the luciferase assay. The final concentration of DMSO in each well was maintained at 0.1%. DMSO and 2 μM of rifampicin were used as the negative and positive control, respectively. Luciferase activities were detected by using EnVision plate reader (PerkinElmer Life Sciences), as previously reported.

[2] = target: Cdk8 (Homo sapiens, UniProt P49336); assay: Cdk kinase profiling assay (Ambit Biosciences); format: binding
Chain of Cdk8 (P49336 whole entry): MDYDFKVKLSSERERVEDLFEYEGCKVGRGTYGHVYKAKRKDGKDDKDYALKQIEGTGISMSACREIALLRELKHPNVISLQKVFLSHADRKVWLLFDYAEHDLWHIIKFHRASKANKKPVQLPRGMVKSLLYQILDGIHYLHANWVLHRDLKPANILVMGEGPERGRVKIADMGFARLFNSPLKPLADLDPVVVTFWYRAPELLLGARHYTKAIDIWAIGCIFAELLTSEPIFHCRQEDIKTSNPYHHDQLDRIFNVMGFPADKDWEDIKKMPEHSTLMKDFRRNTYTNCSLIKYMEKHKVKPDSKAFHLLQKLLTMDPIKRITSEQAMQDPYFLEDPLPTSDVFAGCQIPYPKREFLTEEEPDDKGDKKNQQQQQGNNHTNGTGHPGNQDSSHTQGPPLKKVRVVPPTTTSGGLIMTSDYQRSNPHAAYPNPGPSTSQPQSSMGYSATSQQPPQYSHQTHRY
Procedure: (§1) Since flavonoids have been reported to inhibit multiple Cdks, we investigated the inhibitory effect of flavonoid apigenin on various Cdks. Apigenin inhibited multiple Cdks, including Cdk2, 4, 5, 7, 8, 9 and 11 (Table 1). […] GST was expressed and purified by using pGEX-4T-1 in Escherichia coli BL21 and was used as the negative control. The reaction mixture was incubated at 30°C for 30 min before being electrophoresed by SDS-PAGE. The gel was stained by using SimplyBlue SafeStain (Invitrogen), desiccated by the Labconco gel dryer (Labconco, Kansas City, MO), and exposed overnight to the Storage Phosphor Screen (GE Healthcare). Phosphoimages were obtained by using the Storm scanner (GE Healthcare). In vitro Cdks kinase profiling assays were performed by Ambit Biosciences (San Diego, CA) as previously described.

[3] = target: Cdk5 (Homo sapiens, UniProt Q00535); assay: Cdk kinase profiling assay (Ambit Biosciences); format: binding
Chain of Cdk5 (Q00535 whole entry): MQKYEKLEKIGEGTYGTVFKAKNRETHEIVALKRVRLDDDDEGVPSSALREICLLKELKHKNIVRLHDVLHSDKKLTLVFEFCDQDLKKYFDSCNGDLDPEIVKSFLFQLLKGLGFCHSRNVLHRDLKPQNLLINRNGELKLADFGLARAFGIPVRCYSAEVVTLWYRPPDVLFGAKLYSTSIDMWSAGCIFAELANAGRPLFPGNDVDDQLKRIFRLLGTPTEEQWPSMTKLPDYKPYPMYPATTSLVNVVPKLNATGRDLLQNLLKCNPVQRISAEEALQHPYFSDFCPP
Procedure: as §1

[4] = target: Cdk4 (Homo sapiens, UniProt P11802); assay: Cdk kinase profiling assay (Ambit Biosciences); format: binding
Chain of Cdk4 (P11802 whole entry): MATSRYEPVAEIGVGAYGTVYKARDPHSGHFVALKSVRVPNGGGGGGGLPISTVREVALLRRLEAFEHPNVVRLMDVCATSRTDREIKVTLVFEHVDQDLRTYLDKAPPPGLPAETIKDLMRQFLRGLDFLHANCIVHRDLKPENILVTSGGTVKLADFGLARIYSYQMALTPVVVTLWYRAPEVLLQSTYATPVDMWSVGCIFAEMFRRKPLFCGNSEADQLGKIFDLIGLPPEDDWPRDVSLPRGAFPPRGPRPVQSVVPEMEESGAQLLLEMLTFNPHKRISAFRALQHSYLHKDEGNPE
Procedure: as §1

[5] = target: Cdk9 (Homo sapiens, UniProt P50750); assay: Cdk kinase profiling assay (Ambit Biosciences); format: binding
Chain of Cdk9 (P50750 whole entry): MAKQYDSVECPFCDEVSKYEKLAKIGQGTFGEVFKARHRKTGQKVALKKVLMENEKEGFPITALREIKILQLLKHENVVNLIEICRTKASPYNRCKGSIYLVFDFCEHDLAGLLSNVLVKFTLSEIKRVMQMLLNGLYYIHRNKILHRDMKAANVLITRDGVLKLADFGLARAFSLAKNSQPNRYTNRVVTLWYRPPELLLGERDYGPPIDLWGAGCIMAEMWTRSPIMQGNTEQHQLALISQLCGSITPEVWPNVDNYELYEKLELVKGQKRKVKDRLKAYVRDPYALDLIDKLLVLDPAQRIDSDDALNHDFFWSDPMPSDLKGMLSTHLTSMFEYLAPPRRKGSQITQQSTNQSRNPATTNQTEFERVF
Procedure: as §1

[6] = target: Cdk11 (Homo sapiens, UniProt Q9BWU1); assay: Cdk kinase profiling assay (Ambit Biosciences); format: binding
Chain of Cdk11 (Q9BWU1 whole entry): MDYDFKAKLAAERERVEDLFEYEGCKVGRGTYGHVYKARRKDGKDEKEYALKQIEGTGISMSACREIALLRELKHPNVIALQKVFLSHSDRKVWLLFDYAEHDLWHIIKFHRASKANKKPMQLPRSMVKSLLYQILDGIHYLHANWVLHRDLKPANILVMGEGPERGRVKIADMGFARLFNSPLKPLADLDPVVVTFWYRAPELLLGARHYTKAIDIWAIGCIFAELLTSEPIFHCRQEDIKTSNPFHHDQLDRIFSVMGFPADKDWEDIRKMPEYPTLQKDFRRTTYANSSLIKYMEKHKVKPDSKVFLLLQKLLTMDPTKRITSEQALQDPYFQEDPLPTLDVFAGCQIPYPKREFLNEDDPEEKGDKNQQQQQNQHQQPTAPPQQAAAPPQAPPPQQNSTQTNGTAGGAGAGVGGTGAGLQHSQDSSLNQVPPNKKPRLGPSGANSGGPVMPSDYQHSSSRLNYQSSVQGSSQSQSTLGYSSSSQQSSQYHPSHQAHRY
Procedure: as §1

[7] = target: Cdk7 (Homo sapiens, UniProt P50613); assay: Cdk kinase profiling assay (Ambit Biosciences); format: binding
Chain of Cdk7 (P50613 whole entry): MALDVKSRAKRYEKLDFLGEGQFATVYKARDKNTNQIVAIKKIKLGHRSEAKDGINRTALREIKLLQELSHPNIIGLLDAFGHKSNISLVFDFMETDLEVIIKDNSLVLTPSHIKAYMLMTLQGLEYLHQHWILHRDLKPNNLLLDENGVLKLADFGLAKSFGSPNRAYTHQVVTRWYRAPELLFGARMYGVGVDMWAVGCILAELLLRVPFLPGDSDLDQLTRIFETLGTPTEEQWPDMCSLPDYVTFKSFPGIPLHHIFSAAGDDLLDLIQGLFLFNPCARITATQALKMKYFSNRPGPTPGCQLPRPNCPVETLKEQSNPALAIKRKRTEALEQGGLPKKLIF
Procedure: as §1

[8] = target: Cdk2 (Homo sapiens, UniProt P24941); assay: Cdk kinase profiling assay (Ambit Biosciences); format: binding
Procedure: as §1

[9] = target: Cdk3 (Homo sapiens, UniProt Q00526); assay: Cdk kinase profiling assay (Ambit Biosciences); format: binding
Chain of Cdk3 (Q00526 whole entry): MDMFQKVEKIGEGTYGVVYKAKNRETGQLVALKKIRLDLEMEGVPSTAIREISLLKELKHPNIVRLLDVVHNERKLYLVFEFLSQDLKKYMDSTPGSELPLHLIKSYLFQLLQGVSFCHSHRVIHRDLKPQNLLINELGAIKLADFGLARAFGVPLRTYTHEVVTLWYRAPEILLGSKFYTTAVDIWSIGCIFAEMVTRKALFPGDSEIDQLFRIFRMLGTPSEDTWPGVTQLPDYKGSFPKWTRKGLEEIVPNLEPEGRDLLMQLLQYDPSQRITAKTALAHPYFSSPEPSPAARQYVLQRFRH
Procedure: as §1

[10] = test system: Cdk5-mediated inhibition of PXR-mediated CYP3A4 promoter activity in HepG2; assay: Cdk5-mediated inhibition of rifampicin-induced CYP3A4 promoter activity (transient co-transfection, Dual-glo luciferase); format: cell-based, human; settings: p < 0.001
Procedure: Next, we determined the functional correlation between the activities of Cdk5 and PXR. […] A total of 20 μg of combined plasmids was used to transfect 5 × 10^6 cells seeded in a T75 flask 16 h before transfection. Transfected cells were seeded into white 96-well plates (at 10,000 cells/well) 24 h later, and treated with DMSO or compounds as indicated for 24 h before Dual-glo luciferase assay. CYP3A4 promoter activity was normalized by using activity of the CMV-renilla, and expressed as fold induction over control (DMSO; without Cdk5 transfection). […] The significance of the difference between datasets was determined by using the Student's t test.

[11] = target: T1, GST-hPXR ligand-binding domain (Homo sapiens, UniProt O75469)
T1 sequence (O75469 146-433 limits assumed): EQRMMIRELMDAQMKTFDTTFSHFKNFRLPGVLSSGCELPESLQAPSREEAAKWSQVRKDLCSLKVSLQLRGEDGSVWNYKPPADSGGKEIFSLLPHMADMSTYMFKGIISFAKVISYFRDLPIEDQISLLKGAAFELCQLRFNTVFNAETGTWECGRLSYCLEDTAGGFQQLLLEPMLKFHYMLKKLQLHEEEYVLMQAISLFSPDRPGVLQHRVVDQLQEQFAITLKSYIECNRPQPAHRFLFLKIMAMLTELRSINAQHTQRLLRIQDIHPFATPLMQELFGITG
Procedure: The time-resolved fluorescence resonance transfer (TR-FRET) PXR competitive binding assay was performed as described previously [9]. Briefly, the assays were performed in a volume of 20 μl in 384-well solid black plates with 5 nM GST-hPXR ligand-binding domain, 40 nM fluorescent-labeled hPXR agonist (Fluomore PXR Green), 5 nM terbium-labeled anti-GST antibody, and test compound at different concentrations. […] Curves were generated by using GraphPad Prism 4.0 (GraphPad Software, La Jolla, CA).

SMILES: COc1ccc(-c2coc3cc(O)cc(O)c3c2=O)cc1 [biochanin A]
Activation of PXR-mediated CYP3A4 promoter (result in words) [1]: potent activators

SMILES: CCCC[C@@H](C=O)NC(=O)[C@H](CC(C)C)NC(=O)OCc1ccccc1 [calpeptin, reference compound]
Concentration as potent as 2 μM of rifampicin in inducing PXR activity ([1]; HepG2 PXR/CYP3A4-luc): 4.4 µM | Effect on inhibitory effect of Cdk5 on CYP3A4 promoter activity (result in words) [10]: decreased the inhibitory effect of Cdk5

SMILES: O=c1c(-c2ccc(O)cc2)coc2cc(O)ccc12 [daidzein]
Activation of PXR-mediated CYP3A4 promoter (result in words) [1]: potent activators

SMILES: O=c1c(-c2ccc(O)cc2)coc2cc(O)cc(O)c12 [genistein]
Activation of PXR-mediated CYP3A4 promoter (result in words) [1]: potent activators

SMILES: COc1cc(O)c2c(=O)c(-c3ccc(O)cc3)coc2c1 [prunetin]
Activation of PXR-mediated CYP3A4 promoter (result in words) [1]: potent activators

Second part, the compound after the results:

PXR activation as % of the activity from 2 μM of rifampicin [1]: more than 50% | Activation of PXR-mediated CYP3A4 promoter (result in words) [1]: potent activators | Kd [2]: 5.8 µM | Kd [3]: 3.9 µM | Kd [4]: 7 µM | Kd [5]: 2 µM | Kd [6]: 3 µM | Kd [7]: 1.7 µM | Kd [8]: 9.8 µM | Kd [9]: > 30 µM
SMILES: O=c1cc(-c2ccc(O)cc2)oc2cc(O)cc(O)c12 [apigenin]

Binding to PXR (result in words) [11]: did not bind | Activation of PXR-mediated CYP3A4 promoter (result in words) [1]: potent activators
SMILES: O=c1cc(-c2ccccc2)oc2cc(O)cc(O)c12 [chrysin]

PXR activation, times more effective than 2 μM rifampicin ([1]; compound at 40 μM, versus 2 μM rifampicin): 7 times | PXR activation as % of the activity from 2 μM of rifampicin [1]: more than 50% | Activation of PXR-mediated CYP3A4 promoter (result in words) [1]: potent activators
SMILES: O=c1cc(-c2ccc(O)c(O)c2)oc2cc(O)cc(O)c12 [luteolin]
